Measured values as given in patent publication US20120294879A1, “CONSENSUS SEQUENCE FOR INFLUENZA A VIRUS” (priority 2009, published 2012).

What was measured:
Assay type in all cases: cell-based
[1] = system: splenocytes of HLA-DR4 (DRB1*0401) transgenic mice; design: key: — represents no positive ELISpot response
[2] = system: splenocytes of HLA-DR3 (DRB1*0301) transgenic mice; design: key to DR3: average IFN-γ spots forming cells per million splenocytes: — represents no positive ELISpot response
[3] = system: splenocytes of HLA-A24 (A*2402) transgenic mice; design: key to A24: average IFN-γ spots forming cells per million splenocytes: — represents no positive ELISpot response
[4] = system: splenocytes of HLA-DR2 (DRB1*1501) transgenic mice; design: key to DR2: average IFN-γ spots forming cells per million splenocytes: — represents no positive ELISpot response
[5] = system: splenocytes of HLA-B7 (B*0702) transgenic mice; design: key to B7: average IFN-γ spots forming cells per million splenocytes: — represents no positive ELISpot response

Sequence	DR4: average IFN-γ spots forming cells per million splenocytes [1]	DR3: average IFN-γ spots forming cells per million splenocytes [2]	DR3: lowest concentration of peptide giving positive ELISpot response in peptide titration [2]	A24: average IFN-γ spots forming cells per million splenocytes [3]	DR2: average IFN-γ spots forming cells per million splenocytes [4]	B7: average IFN-γ spots forming cells per million splenocytes [5]	DR2: lowest concentration of peptide giving positive ELISpot response in peptide titration [4]	A24: lowest concentration of peptide giving positive ELISpot response in peptide titration [3]
APIMFSNKMARLGKGYM	—	175 ± 0(0.1) IFN-γ spots forming cells per million splenocytes	175 ± 0(0.1) μg/ml	—	—	—		
DKLTQGRQTYDWTLNRN	—	142 ± 6(0.1) IFN-γ spots forming cells per million splenocytes	142 ± 6(0.1) μg/ml	—	—	—		
DQSLIIAARNIVRRAAV	—	169 ± 12(0.1) IFN-γ spots forming cells per million splenocytes	169 ± 12(0.1) μg/ml	—	—	—		
DYRYTYRCHRGDTQIQT	76 ± 2(0.1) IFN-γ spots forming cells per million splenocytes	166 ± 22(0.1) IFN-γ spots forming cells per million splenocytes	166 ± 22(0.1) μg/ml	—	109 ± 13(1) IFN-γ spots forming cells per million splenocytes	—	109 ± 13(1) μg/ml	
ESADMSIGVTVIKNNMI	—	—		—	75 ± 10(0.1) IFN-γ spots forming cells per million splenocytes	—	75 ± 10(0.1) μg/ml	
ESKSMKLRTQIPAEMLA	—	—		—	84 ± 20(0.1) IFN-γ spots forming cells per million splenocytes	—	84 ± 20(0.1) μg/ml	
EVHIYYLEKANKIKSEK	37 ± 11(0.1) IFN-γ spots forming cells per million splenocytes	—		—	—	—		
EYDAVATTHSWVPKRNR	59 ± 2(0.1) IFN-γ spots forming cells per million splenocytes	—		—	—	—		
FFYRYGFVANFSMELPS	—	—		210 ± 25 IFN-γ spots forming cells per million splenocytes	—	—		(0.1) μg/ml
GPAKNMEYDAVATTHSW	41 ± 9(0.1) IFN-γ spots forming cells per million splenocytes	142 ± 45(0.1) IFN-γ spots forming cells per million splenocytes	142 ± 45(0.1) μg/ml	—	—	—		
GRFYIQMCTELKLNDYE	—	66 ± 7(1) IFN-γ spots forming cells per million splenocytes	66 ± 7(1) μg/ml	—	—	—		
IGVTVIKNNMINNDLGP	—	—		—	159 ± 53(0.1) IFN-γ spots forming cells per million splenocytes	—	159 ± 53(0.1) μg/ml	
KHGTFGPVHFRNQVKIR	316 ± 20(0.1) IFN-γ spots forming cells per million splenocytes	—		—	—	—		
KLLGINMSKKKSYINRT	—	116 ± 10(0.1) IFN-γ spots forming cells per million splenocytes	116 ± 10(0.1) μg/ml	—	—	—		
KRSYEQMETDGERQNAT	52 ± 29(0.1) IFN-γ spots forming cells per million splenocytes	—		—	—	—		
KWVRELVLYDKEEIRRI	—	614 ± 21(0.1) IFN-γ spots forming cells per million splenocytes	614 ± 21(0.1) μg/ml	—	—	—		
KYPITADKRITEMIPER	—	499 ± 4(0.1) IFN-γ spots forming cells per million splenocytes	499 ± 4(0.1) μg/ml	—	—	—		
LASTTAKAMEQMAGSSE	115 ± 21(1) IFN-γ spots forming cells per million splenocytes	—		—	—	—		
LEKANKIKSEKTHIHIF	41 ± 10(0.1) IFN-γ spots forming cells per million splenocytes	—		—	—	—		
LLRHFQKDAKVLFLNWG	—	444 ± 14(0.1) IFN-γ spots forming cells per million splenocytes	444 ± 14(0.1) μg/ml	—	—	—		
LPDMTPSTEMSMRGVRV	—	324 ± 28(0.1) IFN-γ spots forming cells per million splenocytes	324 ± 28(0.1) μg/ml	—	—	—		
LQLFIKDYRYTYRCHRG	97 ± 30(0.1) IFN-γ spots forming cells per million splenocytes	230 ± 23(0.1) IFN-γ spots forming cells per million splenocytes	230 ± 23(0.1) μg/ml	—	61 ± 2(1) IFN-γ spots forming cells per million splenocytes	—	61 ± 2(1) μg/ml	
LTHIMIWHSNLNDTTYQ	—	—		—	238 ± 59(0.1) IFN-γ spots forming cells per million splenocytes	—	238 ± 59(0.1) μg/ml	
MELPSFGVSGVNESADM	274 ± 15(0.1) IFN-γ spots forming cells per million splenocytes	—		—	—	—		
